Assay results as given in ChEMBL document CHEMBL1201862, “PubChem BioAssay data set” (2004).
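All cell lines were grown in 96-well plates and treated with compound for 48 hours. Here, GI50 denotes the concentration required for 50% inhibition of growth.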 Calls of active or inactive are those of the source. Rule as the data show it: active = GI50 up to about 1.1 µM and inactive = higher.

How the values were obtained:
Test in all cases: NCI-60 cell line screen, 48 h
SK-MEL-2 = test system: SK-MEL-2
SK-MEL-28 = test system: SK-MEL-28
NCI-H23 = test system: NCI-H23
LOX IMVI = test system: LOX IMVI
NCI-H460 = test system: NCI-H460
HOP-62 = test system: HOP-62
M14 = test system: M14
A498 = test system: A498
OVCAR-3 = test system: OVCAR-3
HCC 2998 = test system: HCC 2998
SN12C = test system: SN12C
SK-MEL-5 = test system: SK-MEL-5
HL-60 = test system: HL-60
CCRF-CEM = test system: CCRF-CEM
NCI/ADR-RES = test system: NCI/ADR-RES
T47D = test system: T47D
SF-268 = test system: SF-268
HOP-92 = test system: HOP-92
MDA-N = test system: MDA-N
IGROV-1 = test system: IGROV-1

Row | SMILES | GI50 (SK-MEL-2) | GI50 (SK-MEL-28) | GI50 (NCI-H23) | GI50 (LOX IMVI) | GI50 (NCI-H460) | GI50 (HOP-62) | GI50 (M14) | GI50 (A498) | GI50 (OVCAR-3) | GI50 (HCC 2998) | GI50 (SN12C) | GI50 (SK-MEL-5) | GI50 (HL-60) | GI50 (CCRF-CEM) | GI50 (NCI/ADR-RES) | GI50 (T47D) | GI50 (SF-268) | GI50 (HOP-92) | GI50 (MDA-N) | GI50 (IGROV-1)
1 | O=C1C(CN2CCCC2)CCCC1CN1CCCC1 (centres undefined) | 18.5 µM (inactive) | 3.85 µM (inactive) | 1.95 µM (inactive) | 2.52 µM (inactive) | 22.8 µM (inactive) | > 49.8 µM (inactive) | 1.74 µM (inactive) | 20.7 µM (inactive) | 5.01 µM (inactive) | 18.3 µM (inactive) | 17.1 µM (inactive) | 16.6 µM (inactive) | 0.326 µM (active) | 0.0318 µM (active) | 6.1 µM (inactive) | 2.56 µM (inactive) | 25.8 µM (inactive) | 0.229 µM (active) | 7.59 µM (inactive) | 17.1 µM (inactive)
2 | COc1ccc(/C=C/C(=O)c2cccc(C(=O)/C=C/c3ccc(OC)c(OC)c3)n2)cc1OC | > 100 µM (inactive) | 15.8 µM (inactive) | 29.2 µM (inactive) | 2.02 µM (inactive) | 96.8 µM (inactive) | > 89.7 µM (inactive) | 32.7 µM (inactive) | > 91.2 µM (inactive) | > 54.8 µM (inactive) | > 100 µM (inactive) | 15.5 µM (inactive) | 98.4 µM (inactive) | 1.15 µM (inactive) | 1.05 µM (active) | 24.8 µM (inactive) | > 49.3 µM (inactive) | 36.9 µM (inactive) | > 100 µM (inactive) | 15.7 µM (inactive) | 25.9 µM (inactive)
3 | CC1(C)OC(=S)N(c2ccccc2)C12C=Cc1cc3ccccc3cc1O2 (centres undefined) | > 100 µM (inactive) | > 100 µM (inactive) | > 100 µM (inactive) | > 100 µM (inactive) | > 100 µM (inactive) | > 100 µM (inactive) | > 100 µM (inactive) | > 100 µM (inactive) | > 100 µM (inactive) | > 100 µM (inactive) | > 100 µM (inactive) | > 100 µM (inactive) | 16.6 µM (inactive) | > 100 µM (inactive) | > 100 µM (inactive) | > 100 µM (inactive) | > 100 µM (inactive) | > 100 µM (inactive) | > 100 µM (inactive) | 6.28 µM (inactive)
4 | O=C1C=CC(=O)C(CNc2ccc(C(=O)OC34CC5CC(CC(C5)C3)C4)cc2)=C1 | 15.1 µM (inactive) | 4.69 µM (inactive) | 6.67 µM (inactive) | 4.57 µM (inactive) | 15.2 µM (inactive) | 11.4 µM (inactive) | 12.6 µM (inactive) | 11.7 µM (inactive) | 3.06 µM (inactive) | 15 µM (inactive) | 11.3 µM (inactive) | 4.38 µM (inactive) | 1.53 µM (inactive) | 1.34 µM (inactive) | 3.44 µM (inactive) | 2.49 µM (inactive) | 11.9 µM (inactive) | 3.28 µM (inactive) | 4.73 µM (inactive) | 1.54 µM (inactive)
5 | O=C1C[C@@H](Sc2ccccc2)C2(OCCO2)[C@H]2ON3CCC[C@@H]3[C@@H]12 | 3.72 µM (inactive) | 7.83 µM (inactive) | 4.61 µM (inactive) | 3.1 µM (inactive) | 4.36 µM (inactive) | 3.16 µM (inactive) | 2.12 µM (inactive) | 10.9 µM (inactive) | 1.68 µM (inactive) | 8 µM (inactive) | 2.33 µM (inactive) |  | 1.38 µM (inactive) | 0.782 µM (active) | 3.31 µM (inactive) | 2.83 µM (inactive) | 2.95 µM (inactive) | 3.89 µM (inactive) | 2.7 µM (inactive) | 2.24 µM (inactive)
6 | CC(C)/C(Cl)=N/OC(=O)Nc1ccc(F)c(Cl)c1 | 18.8 µM (inactive) | 2.23 µM (inactive) | 14.2 µM (inactive) | 1.76 µM (inactive) | 18.2 µM (inactive) | 17.6 µM (inactive) | 3.23 µM (inactive) | 18.2 µM (inactive) | 3.4 µM (inactive) | 14.6 µM (inactive) | 1.76 µM (inactive) | 13.1 µM (inactive) | 2.03 µM (inactive) | 1.31 µM (inactive) | 14.5 µM (inactive) | 5.11 µM (inactive) | 19.4 µM (inactive) | 1.59 µM (inactive) | 3.92 µM (inactive) | 12.9 µM (inactive)
7 | Clc1ccc(-c2cc(-c3cc4cc(Br)ccc4nc3Cl)on2)cc1 | 9.71 µM (inactive) | 9.62 µM (inactive) | 17.1 µM (inactive) | 10 µM (inactive) | 10.1 µM (inactive) | 6 µM (inactive) | 12.5 µM (inactive) | 11.7 µM (inactive) | 10 µM (inactive) | 10.3 µM (inactive) | 16.1 µM (inactive) | 9.12 µM (inactive) | 1.7 µM (inactive) | 11.5 µM (inactive) | 14.9 µM (inactive) | 15 µM (inactive) | 13.4 µM (inactive) | 27.9 µM (inactive) | 11.8 µM (inactive) | 12.9 µM (inactive)
